Data published in patent US5646155A, “Drugs to prevent recurrent herpes virus infections” (priority 1994, dated 1997).
pIC50, pKi: −log10 of the molar value. In brackets after ≈: the same amount, converted by molar mass. Read-outs that look alike come from different tables or passages of the source. Values belong to the molecule of their own block, whether it stands above or below them.

What was measured:
[1] = biological target: Varicella Zoster Virus (VZV) Thymidine Kinase (TK) (Varicella-zoster virus, UniProt P09250); assay: VZV thymidine kinase inhibition (Table 7); type: biochemical
Chain of Varicella Zoster Virus (VZV) Thymidine Kinase (TK) (P09250 whole entry, looked up): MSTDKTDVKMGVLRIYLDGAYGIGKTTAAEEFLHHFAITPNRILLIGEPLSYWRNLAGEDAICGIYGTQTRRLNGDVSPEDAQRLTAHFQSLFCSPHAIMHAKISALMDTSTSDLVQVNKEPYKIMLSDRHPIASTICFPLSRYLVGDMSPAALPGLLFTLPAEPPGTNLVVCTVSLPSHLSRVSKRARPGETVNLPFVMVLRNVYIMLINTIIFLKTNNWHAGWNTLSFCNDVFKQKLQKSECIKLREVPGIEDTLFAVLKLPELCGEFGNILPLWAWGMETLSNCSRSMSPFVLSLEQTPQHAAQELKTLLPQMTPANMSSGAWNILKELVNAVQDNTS

[2] = Solubility in water (Table 1); type: physicochemical; settings: read-out: Sol. in H2O
physchem = settings: octanol/water
HSV2 TK = HSV2 TK (Human herpesvirus 2, UniProt P04407); assay: HSV2 thymidine kinase inhibition (Table 1); type: biochemical
Chain of HSV2 TK (P04407 whole entry): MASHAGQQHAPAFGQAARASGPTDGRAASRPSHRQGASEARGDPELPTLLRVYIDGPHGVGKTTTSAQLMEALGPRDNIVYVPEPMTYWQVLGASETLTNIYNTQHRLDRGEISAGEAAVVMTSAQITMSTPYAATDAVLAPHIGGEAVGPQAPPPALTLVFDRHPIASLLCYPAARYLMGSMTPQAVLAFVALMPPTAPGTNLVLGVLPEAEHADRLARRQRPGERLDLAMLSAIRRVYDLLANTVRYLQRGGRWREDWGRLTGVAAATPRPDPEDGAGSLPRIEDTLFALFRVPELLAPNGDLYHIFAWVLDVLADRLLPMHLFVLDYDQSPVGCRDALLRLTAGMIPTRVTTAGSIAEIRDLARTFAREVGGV
Excerpt: kinases (TK) from Herpes simplex virus types 1 and 2 (HSV1, HSV2).

HSV1 TK = HSV1 TK (Human herpesvirus 1, UniProt P0DTH5); assay: biochemical
Chain of HSV1 TK (P0DTH5 whole entry): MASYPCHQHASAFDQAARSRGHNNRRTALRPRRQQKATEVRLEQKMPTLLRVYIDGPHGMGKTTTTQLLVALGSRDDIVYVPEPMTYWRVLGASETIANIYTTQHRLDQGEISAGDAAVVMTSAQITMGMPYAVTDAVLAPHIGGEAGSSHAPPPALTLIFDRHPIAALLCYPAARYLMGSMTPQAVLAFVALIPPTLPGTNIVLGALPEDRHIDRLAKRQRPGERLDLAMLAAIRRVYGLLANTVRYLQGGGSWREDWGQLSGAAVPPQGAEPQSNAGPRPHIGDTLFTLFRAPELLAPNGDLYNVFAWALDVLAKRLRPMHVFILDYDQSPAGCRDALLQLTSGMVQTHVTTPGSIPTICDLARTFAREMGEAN

[3] = Pharmacokinetics in mice following intraperitoneal administration (Table 3); type: in vivo; settings: mouse, ip
Description: Pharmacokinetic parameters of inhibitors in mice
following intraperitoneal (100 mg/Kg) administration (i.p.)
^1 Plasma concentrations were measured by analytical HPLC on a C8
reverse phase column as described in the experimental Section.

HSV1, strain McKrae = assay: Reactivation in vitro of latent HSV1 strain McKrae from explanted mouse ganglia (Table 6); type: cell-based, mice; settings: 15 μM drugs, 7 days, supernatant added to Vero cells
Description: Screening of compounds is carried out using an in vitro explant cocultivation model in mice. Ocular HSV1 infections are initiated and, after subsidence of the infectious phase (several days), latent HSV1 infection becomes established in the trigeminal ganglia of the mice. The ganglia are then surgically removed and minced or homogenized, and this explanted tissue is cocultivated on mammalian cells, typically Vero cells. The frequency of reactivation is determined as the percentage of ganglia that produce HSV1 virus (as measured by viral cytopathic effect (CPE)) in the cultures. Effective drugs present during the cocultivation period will decrease the frequency of reactivation relative to untreated cocultures. See Leib et al. (J. Virol. 63:759-768 (1989)), incorporated herein by reference, and statements herein for further experimental details.
Latent ocular HSV1 infections were established in mice. Trigeminal gangli
were removed and treated as follows.
^2 Ganglia were minced and incubated for 7 days in the presence of 15
μM drugs; after homogenization, supernatant was added to Vero cells in
culture (courtesy of Dr. Y. J. Gordon, Eye and Ear Institute, Pittsburgh)

HSV1 [4] = assay: Hyperthermia-induced viral DNA synthesis in HSV1 latent mice, QCPCR (Table 5); type: in vivo; settings: 200 mg/kg, stressed (43° C. water 10 min), ganglionic DNA
Description: (§1) Table 5 provides quantitation of viral DNA using quantitative, competitive polymerase chain reaction methods.
(§2) .dagger-dbl.HSV1 latent mice were treated with HBPG (200 mg/kg), stressed
(§3) by immersion in 43° C. water for 10 min, and sacrificed 24 hours
ΔGanglionic DNA was amplified in quantitative, competitive
polymerase chain reaction (QCPCR) and the copy number of the viral gene
present determined at the equivalence point.

HSV1 [5] = assay: Hyperthermia-induced HSV1 reactivation in mice, infectious virus (Table 4); type: in vivo; settings: for Infectious Virus, Ganglion / Infectious Virus, Ocular Surface: 200 mg/kg
Description: as §1, §2, §3
ΔGanglion homogenates and ocular surface swabs were cocultured on
indicator cells and the appearance of cytopathic effect recorded.

[6] = Absorption and distribution in mice (Table 2); type: in vivo; settings: for Vd/F: i.p.; for half-life: plasma
Excerpt: Absorption and distribution of 9-substituted-N^2 -phenylquanines in mice.
*i.v., intravenous; i.p., intraperitoneal.

HSV1, strain KOS = settings: 150 μM drugs, cocultivated on Vero cells (from Leib et al.); cited from earlier work
[7] = stressed (43° C. water 10 min), sacrificed 24 hours later
[8] = mouse, in vivo, ip, mice, in 90% DMSO/H2O, read-out: Volume of Distribution
[9] = mouse, ip, mice, in 90% DMSO/H2O
[10] = mouse, ip, pH 11.3, mice, in saline, pH 11.3

Compound: CCCCCCCCCCCCNc1nc2nc[nH]c2c(=O)[nH]1 [C12 G, N^2 -(n-Dodecyl)guanine]
pKi [1]: 5.49
Mode of inhibition of VZV TK [1]: Competitive inhibitor

Compound: CCCCCCCCCCCCCCNc1nc2[nH]cnc2c(=O)[nH]1 [C14 G]
pIC50 [1]: 4.16

solubility [2]: 29.8 µM (≈ 10.8 µg/mL)
logP (physchem): 0.826
pIC50 (HSV2 TK; read-out: IC50 HSV2 TK): 5.81
Compound: O=c1[nH]c(Nc2ccccc2)nc2c1ncn2CC(O)CSCCO (stereo not shown) [CH2 CHCH2SCH2 CH2 OH]

Compound: C=CCn1cnc2c(=O)[nH]c(Nc3ccccc3)nc21 [CH2 CHCH2]
solubility [2]: 8.1 µM (≈ 2.17 µg/mL)
logP (physchem): 1.75

solubility [2]: 113 µM (≈ 37.4 µg/mL)
pIC50 (HSV1 TK): 6.30
logP (physchem): 0
Compound: O=c1[nH]c(Nc2ccccc2)nc2c1ncn2COC(CO)CO [CH2OCH(CH2 OH)2]

Compound: O=c1[nH]c(Nc2ccccc2)nc2c1ncn2CC(O)CO (stereo not shown) [DHP-PG, 9-(2,3-Dihydroxypropyl)-N^2-phenylguanine]
C0 ([3]; in vivo, 100 mg/kg): 115 µM
half-life ([3]; in vivo, 100 mg/kg): 17.3 min
solubility [2]: 171 µM (≈ 51.4 µg/mL)
# ganglia reactivated/# explanted, HSV1 strain McKrae (HSV1, strain McKrae): 4/4
logP (physchem): 0.398

Compound: O=c1[nH]c(Nc2ccccc2)nc2c1ncn2CCCCO [HB-PG, 9-(4-Hydroxybutyl)-N^2-phenylguanine]
C0 ([3]; in vivo, 100 mg/kg): 30.5 µM
Viral DNA (HSV1 [4]): < 1 × 10^2 copies
solubility [2]: 56 µM (≈ 16.8 µg/mL)
# ganglia reactivated/# explanted, HSV1 strain McKrae (HSV1, strain McKrae): 2/4
logP (physchem): 1.26
Infectious Virus, Ganglion (HSV1 [5]; not stressed): 0/8
Infectious Virus, Ocular Surface (HSV1 [5]; not stressed): 0/9
Infectious Virus, Ganglion (HSV1 [5]; [7]): 7/18
Infectious Virus, Ocular Surface (HSV1 [5]; [7]): 3/20
P, difference in frequency of virus in samples from HBPG-treated compared to placebo-treated animals (HSV1 [5]; vs placebo): < 0.05
pIC50 (HSV2 TK): 5.66
Vd/F [6, 8]: 12.7 L/kg
half-life [6, 9]: 85 min
half-life ([6]; mouse, ip, mice, in corn oil): 55 min

Compound: O=c1[nH]c(Nc2ccccc2)nc2c1ncn2CCO [HE-PG, 9-(2-Hydroxyethyl)-N^2-phenylguanine]
C0 ([3]; in vivo, 100 mg/kg): 100 µM
half-life ([3]; plasma, mice, i.p. 100 mg/Kg, 90% DMSO, read-out: Plasma t1/2): 21 min
solubility [2]: 156 µM (≈ 42.4 µg/mL)
# ganglia reactivated/# explanted, HSV1 strain McKrae (HSV1, strain McKrae): 4/4
logP (physchem): 0.833
Plasma half-life ([6]; mice, i.v., in 90% DMSO/H2O): 15 min
Volume of Distribution ([6]; mice, i.v., in 90% DMSO/H2O): 3.3 L/kg
Vd/F [6, 8]: 4.3 L/kg
half-life [6, 9]: 19 min

Compound: Oc1[nH]c(Nc2ccccc2)nc2ncnc1-2 [H]
pIC50 (HSV2 TK): 5.80

Compound: O=C(O)Cn1cnc2c(=O)[nH]c(Nc3ccccc3)nc21 [PG-AA, (N^2 -Phenylguan-9-yl)acetic acid]
C0 ([3]; in vivo, 100 mg/kg): 246 µM
half-life ([3]; in vivo, 100 mg/kg): 26.6 min
# ganglia reactivated/# explanted, HSV1 strain McKrae (HSV1, strain McKrae): 4/4
Vd/F [6, 8]: 1.7 L/kg
half-life [6, 9]: 33 min

Compound: O=c1[nH]c(Nc2ccccc2)nc2c1ncn2[C@H]1C[C@H](O)[C@@H](CO)O1 [PhdG, 9-(2-Deoxyribofuranosyl)-N^2-phenylguanine]
C0 ([3]; in vivo, 100 mg/kg, pH 11.4): 11.7 µM
half-life ([3]; in vivo, 100 mg/kg, pH 11.4): 60 min
# ganglia reactivated/# explanted, HSV1 strain KOS (HSV1, strain KOS): 3/20
# ganglia reactivated/# explanted, HSV1 strain McKrae (HSV1, strain McKrae): 1/4
Vd ([6]; mouse, in vivo, iv, mice, i.v., in saline, pH 11.3, read-out: Volume of Distribution): 0.4 L/kg
half-life [6, 10]: 60 min
half-life ([6]; mouse, iv, pH 11.3, mice, in saline, pH 11.3): 7.5 min

Compound: CCCNc1nc2c(ncn2[C@H]2C[C@H](O)[C@@H](CO)O2)c(=O)[nH]1 [PrdG, 9-(2-deoxyribofuranosyl)-N^2-n-propylguanine]
pIC50 [1]: 4.70
pKi [1]: 4.87
Mode of inhibition of VZV TK [1]: Competitive inhibitor

Compound: O=c1[nH]c(Nc2ccccc2)nc2c1ncn2[C@H]1C[C@H](O)[C@@H](CO)O1 [drawing 15]
solubility [2]: 81 µM (≈ 27.8 µg/mL)
logP (physchem): 0.398
pIC50 (HSV2 TK): 6.15

Compound: O=c1[nH]c(Nc2cccc(C(F)(F)F)c2)nc2nc[nH]c12 [m-CF3 PG, N^2-(m-[trifluoromethyl]phenyl)guanine, reference compound]
C0 ([3]; in vivo, 100 mg/kg, pH 11.4): 10.2 µM
# ganglia reactivated/# explanted, HSV1 strain KOS (HSV1, strain KOS): 1/20
# ganglia reactivated/# explanted, HSV1 strain McKrae (HSV1, strain McKrae): 0/4
Plasma half-life ([6]; mice, i.v., in saline, pH 11.3): 25 min
Volume of Distribution ([6]; mice, i.v., in saline, pH 11.3): 3.0 L/kg
half-life [6, 10]: 140 min
